# Results taken from patent publication US20220395007A1, “TASTE MODULATING COMPOUNDS AND METHODS OF IMPROVING THE QUALITY OF FOODS AND BEVERAGES” (Ohio State Innovation Foundation, priority 2019, published 2022).
# Columns and labels:
# [1] = system: perceived bitterness intensity of a coffee rated as having a high bitter intensity; experiment: Sensory panel evaluation of perceived bitterness intensity of coffee brew; assay type: in vivo, human; details: compound added individually to high-bitter coffee (4-CQA about 177 mg/L, 5-CQA about 181 mg/L, 2-GA about 45 mg/L); eight trained panelists, nose clips, room temperature, duplicate; p<0.05
# Experimental: 4-CQA (4-caffeoylquinic acid) (about 177 mg/L), 5-CQA (5-caffeoylquinic acid) (about 181 mg/L), and 2-GA (2-O-β-D-glucopyranosyl-atractyligenin) (about 45 mg/L) were added individually or as a group to a coffee rated as having a high bitter intensity. Five mL of each sample at room temperature was presented to experienced sensory panelists in 1 oz black cups labeled with 3-digit codes in random order. Eight trained panelists, recruited by Flavor Research and Education Center (FREC) at The Ohio State University, used nose clips during the evaluation in order to prevent interactions with olfactory responses. Between samples, panelists waited a minimum of 90 seconds and were asked to cleanse their palate using crackers and water. All evaluations were conducted in duplicate using Compusense Cloud software (Compusense Inc., Guelph, ON, Canada). […] FIGS. 1 and 2.
# [2] = system: taste attributes in isolation; experiment: Taste attributes of the compounds in isolation, by consensus of experienced sensory panelists; assay type: in vivo, human; details: same concentrations as in coffee, 5 experienced panelists by consensus
# Experimental: The taste attributes 4-CQA, 5-CQA, and 2-GA in isolation were further evaluated by 5 experienced sensory panelists by consensus. Each compound was dissolved in 5 mL nanopure water and 5 mL buffer (0.05 M sodium phosphate butter adjusted to pH 5.77 with 0.1 M citric acid) at the same concentrations described above. […] This led to the confirmation that 4-CQA, 5-CQA, and 2-O-β-D-glucopyranosyl-atractyligenin were bitter modulators that suppressed perception.
# [3] = dissolved in 5 mL buffer (0.05 M sodium phosphate adjusted to pH 5.77 with 0.1 M citric acid)
# [4] = dissolved in 5 mL nanopure water
Compound,perceived bitterness intensity of the coffee brew [1],"taste attribute in isolation [2, 3]","taste attribute in isolation [2, 4]"
"C=C1[C@@H]2CCC3[C@@](CC[C@@H]4[C@H](C(=O)O)C[C@@H](O[C@@H]5O[C@H](CO)[C@@H](O)[C@H](O)[C@H]5O)C[C@@]34C)(C2)[C@H]1O (stereo partly drawn) [2-GA, 2-O-β-D-glucopyranosyl-atractyligenin]",significantly reduce,no obvious taste character,no obvious taste character
"O=C(/C=C/c1ccc(O)c(O)c1)O[C@@H]1C[C@@](O)(C(=O)O)C[C@@H](O)[C@@H]1O [5-CQA, 5-O-caffeoylquinic acid]",significantly reduce,very weak sour taste,very weak sour taste
"O=C(/C=C/c1ccc(O)c(O)c1)O[C@H]1C(O)C[C@](O)(C(=O)O)C[C@H]1O (stereo partly drawn) [4-CQA, 4-O-caffeoylquinic acid]",significantly reduce,very weak sour taste,very weak sour taste
